Assay results taken from PubChem BioAssay (NCI).
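Each compound was tested at five concentrations against cells in 96-well plates for 48 hours. GI50 marks 50% less growth. TGI: total growth inhibition.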

Tests used:
Experiment in all cases: growth of human tumour cells (NCI), 48 h
[1] = test system: HS 578T breast
[2] = test system: RXF 393 renal
[3] = test system: MOLT-4 leukemia
[4] = test system: OVCAR-8 ovarian
[5] = test system: BT-549 breast
[6] = test system: TK-10 renal
[7] = test system: K-562 leukemia
[8] = test system: HCC-2998 colon
[9] = test system: SF-539 CNS
[10] = test system: HL-60(TB) leukemia
[11] = test system: 786-0 renal

C[C@H]1CCC/C=C/[C@@H]2C[C@H](O)C[C@H]2[C@H](O)[C@@H](S(=O)CCN)CC(=O)O1 (stereo partly drawn)
GI50 [1]: 0.207 µM | TGI [1]: > 100 µM | GI50 [2]: < 0.0141 µM | TGI [2]: 0.0456 µM | GI50 [3]: 0.0947 µM | GI50 [4]: < 0.0181 µM | TGI [4]: 0.154 µM | GI50 [5]: 0.0377 µM | TGI [5]: > 100 µM | GI50 [6]: 0.0851 µM | TGI [6]: 4.19 µM | GI50 [7]: 0.132 µM | TGI [7]: > 100 µM | GI50 [8]: 0.252 µM | TGI [8]: 22.3 µM | GI50 [9]: < 0.0176 µM

Cc1c2ccnc(-c3ccccc3)c2cc2c1[nH]c1ccccc12
TGI [10]: 5.35 µM | TGI [2]: 6.22 µM | TGI [3]: 6.96 µM | TGI [4]: 7 µM | TGI [7]: 5.38 µM | TGI [8]: 13.2 µM | TGI [9]: 7 µM

COc1cc2c(cc1OC)C(Cl)C(c1ccc(Cl)cc1)=C2Cl (stereo not drawn)
TGI [10]: 41 µM | TGI [3]: 42.5 µM | TGI [4]: 60.5 µM | TGI [6]: 43.4 µM | TGI [7]: 32.9 µM | TGI [9]: 31.2 µM

O=C(CC1(O)C(=O)Nc2ccc(Br)cc21)c1ccc(C(=O)NCC2CCC3(CC2)OOC2(CCCCC2)OO3)cc1 (stereo not drawn)
GI50 [1]: 9.26 µM | TGI [1]: > 100 µM | GI50 [2]: 5.46 µM | TGI [2]: 26.7 µM | GI50 [3]: 2.14 µM | TGI [3]: 5.87 µM | GI50 [4]: 4.57 µM | TGI [4]: > 100 µM | GI50 [5]: 7.28 µM | TGI [5]: 32.7 µM | GI50 [6]: 3.71 µM | TGI [6]: 11.9 µM | GI50 [8]: 12.7 µM | TGI [8]: 37.6 µM | GI50 [9]: 3.9 µM | TGI [9]: 17.6 µM

Cc1cc(=O)[nH]c(NN2C(Cl)C(=O)C2c2cccc([N+](=O)[O-])c2)n1 (stereo not drawn)
TGI [10]: 36.8 µM | TGI [2]: 22.5 µM | TGI [3]: 44.9 µM | TGI [4]: > 100 µM | TGI [6]: > 100 µM | TGI [7]: 55.3 µM | TGI [8]: 36.8 µM

Cc1ccc(C)c(/C(=N\N=C(N)N)C2CC2)c1
TGI [1]: > 100 µM | TGI [2]: > 100 µM | TGI [3]: > 100 µM | TGI [4]: > 100 µM | TGI [5]: 95.3 µM | TGI [6]: > 100 µM | TGI [7]: 69.6 µM | TGI [8]: 35.4 µM | TGI [9]: 75 µM | TGI [11]: > 100 µM

COc1ccc(-n2c3c(c4cc(O)ccc42)C(=O)c2ccccc2C3=O)cc1
TGI [1]: > 100 µM | TGI [10]: > 100 µM | TGI [2]: 18 µM | TGI [3]: > 100 µM | TGI [4]: 13.6 µM | TGI [5]: 31.5 µM | TGI [6]: 31.1 µM | TGI [7]: > 100 µM | TGI [9]: 11.5 µM | TGI [11]: 11.5 µM

Oc1cc(O)cc(/C=C/c2ccc(O)c(O)c2)c1
TGI [10]: > 28.4 µM | TGI [2]: 45.7 µM | TGI [3]: > 46.5 µM | TGI [4]: > 100 µM | TGI [7]: > 58.9 µM | TGI [8]: 34.4 µM | TGI [9]: 22.9 µM

CN(C)c1ccc(C2CC(=O)C(C#N)=C(c3ccccc3)NN2C)cc1 (stereo not drawn)
TGI [10]: 19.9 µM | TGI [2]: > 100 µM | TGI [3]: > 100 µM | TGI [6]: > 100 µM | TGI [8]: > 100 µM

CC[C@H](Nc1nc(N)nc(N)c1Cl)c1nc2cccc(NCc3ccc(C(=O)NO)cc3)c2c(=O)n1-c1ccccc1
GI50 [1]: 2.62 µM | TGI [1]: 10.9 µM | GI50 [2]: 0.403 µM | TGI [2]: 1.75 µM | GI50 [3]: 1.47 µM | TGI [3]: 16.6 µM | GI50 [4]: 1.69 µM | TGI [4]: 5.05 µM | GI50 [5]: 2.13 µM | TGI [5]: 5.69 µM | GI50 [6]: 2.02 µM | TGI [6]: 6.63 µM | GI50 [7]: 1.78 µM | TGI [7]: > 100 µM | GI50 [8]: 1.62 µM | TGI [8]: 3.22 µM | GI50 [9]: 1.64 µM | TGI [9]: 3.06 µM

Cc1ncc(CO)c(CN)c1O
TGI [1]: > 100 µM | TGI [10]: > 100 µM | TGI [2]: > 100 µM | TGI [3]: > 100 µM | TGI [4]: > 100 µM | TGI [5]: > 100 µM | TGI [6]: > 100 µM | TGI [7]: > 100 µM | TGI [8]: > 100 µM | TGI [9]: > 100 µM | TGI [11]: > 100 µM

O=C1c2ccccc2C(=O)c2c(NCCNC(=O)C3CCCN3)ccc(NCCNC(=O)C3CCCN3)c21 (stereo not drawn)
TGI [1]: > 100 µM | TGI [10]: > 100 µM | TGI [3]: 84.2 µM | TGI [4]: 94.3 µM | TGI [5]: > 100 µM | TGI [6]: > 100 µM | TGI [7]: 52.2 µM | TGI [8]: > 100 µM | TGI [9]: > 100 µM | TGI [11]: 2.09 µM
